{"source": "ChEMBL document CHEMBL4350985", "about": "“1,3-Dioxane as a scaffold for potent and selective 5-HT1AR agonist with in-vivo anxiolytic, anti-depressant and anti-nociceptive activity” (Eur J Med Chem, 2019)", "key": {"[1]": {"molecular_target": "T1, Alpha-1B adrenergic receptor (Rattus norvegicus) (UniProt P15823)", "T1 sequence (whole entry)": "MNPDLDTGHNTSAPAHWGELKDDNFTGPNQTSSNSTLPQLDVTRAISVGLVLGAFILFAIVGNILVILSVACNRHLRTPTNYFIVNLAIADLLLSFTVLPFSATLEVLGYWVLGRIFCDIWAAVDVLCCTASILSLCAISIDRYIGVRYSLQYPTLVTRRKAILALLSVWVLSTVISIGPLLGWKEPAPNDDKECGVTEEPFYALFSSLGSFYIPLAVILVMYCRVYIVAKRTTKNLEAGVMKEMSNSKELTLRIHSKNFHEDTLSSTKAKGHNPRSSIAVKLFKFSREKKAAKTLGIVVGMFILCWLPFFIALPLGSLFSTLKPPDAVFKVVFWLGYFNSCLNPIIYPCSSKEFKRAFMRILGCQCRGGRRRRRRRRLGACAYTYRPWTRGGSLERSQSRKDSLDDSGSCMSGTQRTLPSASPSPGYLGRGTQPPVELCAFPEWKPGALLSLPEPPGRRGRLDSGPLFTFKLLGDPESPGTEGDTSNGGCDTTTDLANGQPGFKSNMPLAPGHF", "test": "Antagonist activity at alpha-1b adrenergic receptor in Wistar rat spleen assessed as inhibition of (-)-phenylephrine-induced contraction", "type": "tissue-based"}, "[2]": {"molecular_target": "T2, Alpha-1D adrenergic receptor (Rattus norvegicus) (UniProt P23944)", "T2 sequence (whole entry)": "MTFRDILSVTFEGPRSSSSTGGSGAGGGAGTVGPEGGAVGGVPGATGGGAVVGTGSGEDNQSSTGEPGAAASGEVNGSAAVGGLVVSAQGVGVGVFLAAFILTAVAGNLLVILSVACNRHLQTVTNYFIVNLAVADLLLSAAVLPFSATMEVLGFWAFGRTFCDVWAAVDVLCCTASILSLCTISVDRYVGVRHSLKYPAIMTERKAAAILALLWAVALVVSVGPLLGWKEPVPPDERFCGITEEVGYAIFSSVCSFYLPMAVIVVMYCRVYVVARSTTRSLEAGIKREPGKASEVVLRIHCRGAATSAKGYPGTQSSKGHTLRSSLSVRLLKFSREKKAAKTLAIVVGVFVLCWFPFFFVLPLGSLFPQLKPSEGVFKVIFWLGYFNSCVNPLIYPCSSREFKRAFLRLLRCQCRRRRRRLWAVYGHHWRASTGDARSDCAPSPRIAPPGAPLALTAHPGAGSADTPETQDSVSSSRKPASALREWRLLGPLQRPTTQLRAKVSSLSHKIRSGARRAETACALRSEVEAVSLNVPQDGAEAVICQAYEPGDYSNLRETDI", "test": "Antagonist activity at alpha-1d adrenergic receptor in Wistar rat thoracic aorta assessed as inhibition of (-)-noradrenaline-induced contractions"}, "[3]": {"molecular_target": "T3, 5-hydroxytryptamine receptor 1A (Homo sapiens, UniProt P08908)", "T3 sequence (P08908 whole entry)": "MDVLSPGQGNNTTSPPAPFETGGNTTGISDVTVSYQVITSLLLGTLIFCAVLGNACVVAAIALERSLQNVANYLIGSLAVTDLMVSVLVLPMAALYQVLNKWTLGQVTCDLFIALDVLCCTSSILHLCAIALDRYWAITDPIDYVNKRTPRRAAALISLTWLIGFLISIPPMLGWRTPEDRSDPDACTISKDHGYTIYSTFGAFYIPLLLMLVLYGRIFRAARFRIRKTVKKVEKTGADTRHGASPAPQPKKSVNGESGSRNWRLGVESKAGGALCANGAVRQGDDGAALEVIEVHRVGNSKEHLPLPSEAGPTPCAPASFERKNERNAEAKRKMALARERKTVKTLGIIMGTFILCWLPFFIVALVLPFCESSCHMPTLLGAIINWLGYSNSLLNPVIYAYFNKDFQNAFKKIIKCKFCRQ", "test": "Displacement of [3H]8-OH-DPAT from human cloned 5HT-1AR transfected in HeLa cells incubated for 30 mins by liquid scintillation counter", "type": "cell-based"}, "[4]": {"molecular_target": "T4, 5-hydroxytryptamine receptor 1A (Homo sapiens) (UniProt P08908)", "T4 sequence (whole entry)": "T3 sequence (P08908 whole entry)", "test": "Agonist activity at human recombinant 5HT1A receptor expressed in human HeLa cells assessed as increase in [35S]GTPgammaS binding incubated for 20 mins by liquid scintillation counter relative to control", "type": "functional, cell-based"}, "[5]": {"molecular_target": "T5, Alpha-1A adrenergic receptor (Homo sapiens, UniProt P35348)", "T5 sequence (P35348 whole entry)": "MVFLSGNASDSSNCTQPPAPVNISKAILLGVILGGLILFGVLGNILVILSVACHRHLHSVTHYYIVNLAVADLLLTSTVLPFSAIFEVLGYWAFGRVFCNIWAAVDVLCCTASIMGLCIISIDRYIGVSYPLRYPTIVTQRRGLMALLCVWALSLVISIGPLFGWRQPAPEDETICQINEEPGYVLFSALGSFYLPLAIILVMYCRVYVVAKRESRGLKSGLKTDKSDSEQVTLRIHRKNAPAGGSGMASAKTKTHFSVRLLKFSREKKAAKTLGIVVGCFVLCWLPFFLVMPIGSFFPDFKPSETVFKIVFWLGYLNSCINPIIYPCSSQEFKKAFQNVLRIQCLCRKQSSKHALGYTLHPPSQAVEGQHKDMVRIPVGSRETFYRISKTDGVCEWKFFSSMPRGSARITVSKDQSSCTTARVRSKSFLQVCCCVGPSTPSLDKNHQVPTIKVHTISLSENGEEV", "test": "biochemical", "description": "Displacement of [3H] prazosin from human cloned adrenoceptor alpha 1A expressed in CHO cell membrane incubated for 30 mins by liquid scintillation counting"}, "[6]": {"molecular_target": "T6, Alpha-1D adrenergic receptor (Homo sapiens, UniProt P25100)", "T6 sequence (P25100 whole entry)": "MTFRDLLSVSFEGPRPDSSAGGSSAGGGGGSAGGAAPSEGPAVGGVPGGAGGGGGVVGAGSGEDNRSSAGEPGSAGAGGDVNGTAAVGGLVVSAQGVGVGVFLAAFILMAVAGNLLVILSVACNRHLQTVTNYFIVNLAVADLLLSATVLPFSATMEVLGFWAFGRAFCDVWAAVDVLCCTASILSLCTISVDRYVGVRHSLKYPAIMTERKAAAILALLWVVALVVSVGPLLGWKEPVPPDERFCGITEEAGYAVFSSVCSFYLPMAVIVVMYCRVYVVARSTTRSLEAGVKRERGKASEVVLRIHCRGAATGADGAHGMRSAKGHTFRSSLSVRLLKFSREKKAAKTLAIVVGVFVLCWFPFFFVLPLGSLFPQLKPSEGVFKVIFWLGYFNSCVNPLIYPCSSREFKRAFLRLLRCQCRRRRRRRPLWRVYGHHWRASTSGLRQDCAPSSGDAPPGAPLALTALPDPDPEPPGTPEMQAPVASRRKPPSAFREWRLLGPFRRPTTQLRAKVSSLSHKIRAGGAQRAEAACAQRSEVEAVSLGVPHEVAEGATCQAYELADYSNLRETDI", "test": "biochemical", "description": "Displacement of [3H] prazosin from human cloned adrenoceptor alpha 1D expressed in CHO cell membrane incubated for 30 mins by liquid scintillation counter"}}}
{"smiles": "COc1ccccc1OCCNCCOC(c1ccccc1)c1ccccc1", "values": [{"measurement": "pKb", "setting": "[1]", "result": 7.11}, {"measurement": "pKb", "setting": "[2]", "result": 7.75}, {"measurement": "Ki", "setting": "[3]", "result": 7.24, "unit": "nM"}, {"measurement": "Emax", "setting": "[4]", "result": 77.3, "unit": "%"}, {"measurement": "Ki", "setting": "[5]", "result": 44.7, "unit": "nM"}, {"measurement": "Ki", "setting": "[6]", "result": 10, "unit": "nM"}]}
{"smiles": "OCC(CNCCOc1ccccc1)OC(c1ccccc1)c1ccccc1", "note": "(stereo unspecified)", "values": [{"measurement": "pKb", "setting": "[1]", "result": 6.98}, {"measurement": "pKb", "setting": "[2]", "result": 7.07}, {"measurement": "Ki", "setting": "[3]", "result": 4.57, "unit": "nM"}, {"measurement": "Emax", "setting": "[4]", "result": 69.5, "unit": "%"}, {"measurement": "Ki", "setting": "[5]", "result": 141, "unit": "nM"}, {"measurement": "Ki", "setting": "[6]", "result": 57.5, "unit": "nM"}]}
{"smiles": "COc1ccccc1OCCNCCC1COC(c2ccccc2)(c2ccccc2)O1", "note": "(stereo unspecified)", "values": [{"measurement": "pKb", "setting": "[1]", "result": 6.93}, {"measurement": "pKb", "setting": "[2]", "result": 8.17}, {"measurement": "Ki", "setting": "[3]", "result": 0.501, "unit": "nM"}, {"measurement": "Emax", "setting": "[4]", "result": 22.1, "unit": "%"}, {"measurement": "Ki", "setting": "[5]", "result": 7.24, "unit": "nM"}, {"measurement": "Ki", "setting": "[6]", "result": 5.75, "unit": "nM"}]}
{"smiles": "c1ccc(OCCNCC2CCOC(c3ccccc3)(c3ccccc3)O2)cc1", "note": "(stereo unspecified)", "values": [{"measurement": "pKb", "setting": "[1]", "result": 6.97}, {"measurement": "pKb", "setting": "[2]", "result": 7.55}, {"measurement": "Ki", "setting": "[3]", "result": 1.86, "unit": "nM"}, {"measurement": "Emax", "setting": "[4]", "result": 79.5, "unit": "%"}, {"measurement": "Ki", "setting": "[5]", "result": 38.9, "unit": "nM"}, {"measurement": "Ki", "setting": "[6]", "result": 5.01, "unit": "nM"}]}
{"smiles": "COc1ccccc1OCCNCC(CO)OC(c1ccccc1)c1ccccc1", "note": "(stereo unspecified)", "values": [{"measurement": "pKb", "setting": "[1]", "result": 7.02}, {"measurement": "pKb", "setting": "[2]", "result": 7.46}, {"measurement": "Ki", "setting": "[3]", "result": 1.55, "unit": "nM"}, {"measurement": "Emax", "setting": "[4]", "result": 90.2, "unit": "%"}, {"measurement": "Ki", "setting": "[5]", "result": 83.2, "unit": "nM"}, {"measurement": "Ki", "setting": "[6]", "result": 5.89, "unit": "nM"}]}
{"smiles": "COc1ccccc1OCCNCC[C@@H]1CO[C@H](C(c2ccccc2)c2ccccc2)O1", "note": "(relative stereo)", "values": [{"measurement": "pKb", "setting": "[1]", "result": 6.91}, {"measurement": "pKb", "setting": "[2]", "result": 7.67}, {"measurement": "Ki", "setting": "[3]", "result": 25.7, "unit": "nM"}, {"measurement": "Emax", "setting": "[4]", "result": 82.1, "unit": "%"}, {"measurement": "Ki", "setting": "[5]", "result": 50.1, "unit": "nM"}, {"measurement": "Ki", "setting": "[6]", "result": 16.6, "unit": "nM"}]}
{"smiles": "COc1ccccc1OCCNCC1COC(c2ccccc2)(c2ccccc2)OC1.O=C(O)C(=O)O", "values": [{"measurement": "pKb", "setting": "[1]", "result": 6.8}, {"measurement": "pKb", "setting": "[2]", "result": 7.06}, {"measurement": "Ki", "setting": "[3]", "result": 1.62, "unit": "nM"}, {"measurement": "Emax", "setting": "[4]", "result": 91.6, "unit": "%"}, {"measurement": "Ki", "setting": "[5]", "result": 33.9, "unit": "nM"}, {"measurement": "Ki", "setting": "[6]", "result": 25.1, "unit": "nM"}]}
{"smiles": "COc1ccccc1OCCNCC1CCOC(c2ccccc2)(c2ccccc2)O1", "note": "(stereo unspecified)", "values": [{"measurement": "pKb", "setting": "[1]", "result": 7.19}, {"measurement": "pKb", "setting": "[2]", "result": 8.68}, {"measurement": "Ki", "setting": "[3]", "result": 0.776, "unit": "nM"}, {"measurement": "Emax", "setting": "[4]", "result": 65.9, "unit": "%"}, {"measurement": "Ki", "setting": "[5]", "result": 24.5, "unit": "nM"}, {"measurement": "Ki", "setting": "[6]", "result": 1.02, "unit": "nM"}]}
{"smiles": "c1ccc(OCCNCCOC(c2ccccc2)c2ccccc2)cc1", "values": [{"measurement": "pKb", "setting": "[1]", "result": 7.01}, {"measurement": "pKb", "setting": "[2]", "result": 7.73}, {"measurement": "Ki", "setting": "[3]", "result": 1.35, "unit": "nM"}, {"measurement": "Emax", "setting": "[4]", "result": 78.9, "unit": "%"}, {"measurement": "Ki", "setting": "[5]", "result": 17, "unit": "nM"}, {"measurement": "Ki", "setting": "[6]", "result": 1.2, "unit": "nM"}]}
{"smiles": "c1ccc(OCCNCC2COC(c3ccccc3)(c3ccccc3)OC2)cc1", "values": [{"measurement": "pKb", "setting": "[1]", "result": 6.76}, {"measurement": "pKb", "setting": "[2]", "result": 6.76}, {"measurement": "Ki", "setting": "[3]", "result": 23.4, "unit": "nM"}, {"measurement": "Emax", "setting": "[4]", "result": 88.7, "unit": "%"}, {"measurement": "Ki", "setting": "[5]", "result": 288, "unit": "nM"}, {"measurement": "Ki", "setting": "[6]", "result": 178, "unit": "nM"}]}
{"smiles": "COc1ccccc1OCCNCC[C@H]1CO[C@H](C(c2ccccc2)c2ccccc2)O1", "note": "(relative stereo)", "values": [{"measurement": "pKb", "setting": "[1]", "result": 7.13}, {"measurement": "pKb", "setting": "[2]", "result": 7.25}, {"measurement": "Ki", "setting": "[3]", "result": 15.5, "unit": "nM"}, {"measurement": "Emax", "setting": "[4]", "result": 53, "unit": "%"}, {"measurement": "Ki", "setting": "[5]", "result": 60.3, "unit": "nM"}, {"measurement": "Ki", "setting": "[6]", "result": 15.8, "unit": "nM"}]}
